Source: ChEMBL document CHEMBL4321836, “Discovery of BAY-298 and BAY-899: Tetrahydro-1,6-naphthyridine-Based, Potent, and Selective Antagonists of the Luteinizing Hormone Receptor Which Reduce Sex Hormone Levels in Vivo” (J Med Chem, 2019)
Active and inactive are the calls of the source. No cut-off for these calls is given here.

How the values were obtained:
[1] = molecular target: T1, Lutropin-choriogonadotropic hormone receptor (Homo sapiens, UniProt P22888); assay: Antagonist activity at human luteinizing hormone receptor assessed as reduction in agonist-induced cAMP production preincubated for 20 mins followed by agonist solution addition after 60 mins by cell based TR-FRET assay; type: functional
[2] = molecular target: T2, Follicle-stimulating hormone receptor (Homo sapiens, UniProt P23945); assay: Antagonist activity at human follicle stimulating hormone receptor assessed as reduction in agonist-induced cAMP production preincubated for 20 mins followed by agonist solution addition and measured after 120 mins by cell based TR-FRET assay; type: functional
T2 sequence (P23945 whole entry): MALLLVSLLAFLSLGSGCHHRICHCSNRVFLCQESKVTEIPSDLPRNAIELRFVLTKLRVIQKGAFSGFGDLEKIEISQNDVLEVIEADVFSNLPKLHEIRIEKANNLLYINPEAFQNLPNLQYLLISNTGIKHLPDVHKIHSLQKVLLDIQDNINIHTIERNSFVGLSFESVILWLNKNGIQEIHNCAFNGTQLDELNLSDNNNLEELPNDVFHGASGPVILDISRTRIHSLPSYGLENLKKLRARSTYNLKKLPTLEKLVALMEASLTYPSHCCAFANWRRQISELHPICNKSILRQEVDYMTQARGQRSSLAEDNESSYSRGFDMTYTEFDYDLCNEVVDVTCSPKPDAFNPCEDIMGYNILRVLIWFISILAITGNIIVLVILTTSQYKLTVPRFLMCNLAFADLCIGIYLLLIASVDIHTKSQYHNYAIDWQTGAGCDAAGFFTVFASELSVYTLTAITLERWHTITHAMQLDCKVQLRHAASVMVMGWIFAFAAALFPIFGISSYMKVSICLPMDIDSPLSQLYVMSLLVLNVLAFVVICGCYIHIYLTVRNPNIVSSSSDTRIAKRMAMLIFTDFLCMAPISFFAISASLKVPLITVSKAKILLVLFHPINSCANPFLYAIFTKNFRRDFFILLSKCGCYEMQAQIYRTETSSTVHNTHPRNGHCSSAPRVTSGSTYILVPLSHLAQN

[3] = molecular target: Lutropin-choriogonadotropic hormone receptor (Mus musculus, UniProt P30730); assay: Antagonist activity at luteinizing hormone receptor in mouse MLTC-1 cells assessed as reduction in agonist-induced cAMP production preincubated for 30 mins followed by agonist solution addition and measured after 30 mins by cell based TR-FRET assay; type: functional
[4] = molecular target: Lutropin-choriogonadotropic hormone receptor (Rattus norvegicus, UniProt P16235); assay: Antagonist activity at rat luteinizing hormone receptor expressed in rat ovary granulosa GLHR15 cell suspension assessed as reduction in agonist-induced cAMP production preincubated for 30 mins followed by agonist solution addition after 30 mins by cell based TR-FRET assay; type: functional
[5] = molecular target: Thyrotropin receptor (Homo sapiens, UniProt P16473); assay: Antagonist activity at human thyroid stimulating hormone receptor expressed in rat HTC133 cells assessed as reduction in agonist-induced cAMP production preincubated for 20 mins followed by agonist solution addition and measured after 60 mins by cell based TR-FRET assay; type: functional
[6] = Lipophilicity, logD of the compound at pH 7.5 by reversed-phase HPLC; type: physicochemical; settings: buffer
[7] = Clearance in human liver microsomes at 1 uM measured after 2 to 60 mins in presence of glucose-6-phosphate by LC-MS/MS analysis; type: ADME, Microsome
[8] = Maximum oral bioavailability in human liver microsomes based well stirred liver model at 1 uM measured after 2 to 60 mins in presence of glucose-6-phosphate by LC-MS/MS analysis; type: ADME, Microsome; settings: read-out: Fmax
[9] = molecular target: T1, Lutropin-choriogonadotropic hormone receptor; assay: Agonist activity at human luteinizing hormone receptor incubated for 60 mins by cell based TR-FRET assay; settings: human, 1 h
[10] = molecular target: Relaxin receptor 1 (Homo sapiens) (UniProt Q9HBX9); assay: Antagonist activity at human RXFP1 assessed as reduction in agonist-induced cAMP production preincubated for 20 mins followed by mutRelaxin agonist addition measured after 60 mins by cell based TR-FRET assay; type: functional
Relaxin receptor 1 (Homo sapiens), sequence (Q9HBX9 whole entry): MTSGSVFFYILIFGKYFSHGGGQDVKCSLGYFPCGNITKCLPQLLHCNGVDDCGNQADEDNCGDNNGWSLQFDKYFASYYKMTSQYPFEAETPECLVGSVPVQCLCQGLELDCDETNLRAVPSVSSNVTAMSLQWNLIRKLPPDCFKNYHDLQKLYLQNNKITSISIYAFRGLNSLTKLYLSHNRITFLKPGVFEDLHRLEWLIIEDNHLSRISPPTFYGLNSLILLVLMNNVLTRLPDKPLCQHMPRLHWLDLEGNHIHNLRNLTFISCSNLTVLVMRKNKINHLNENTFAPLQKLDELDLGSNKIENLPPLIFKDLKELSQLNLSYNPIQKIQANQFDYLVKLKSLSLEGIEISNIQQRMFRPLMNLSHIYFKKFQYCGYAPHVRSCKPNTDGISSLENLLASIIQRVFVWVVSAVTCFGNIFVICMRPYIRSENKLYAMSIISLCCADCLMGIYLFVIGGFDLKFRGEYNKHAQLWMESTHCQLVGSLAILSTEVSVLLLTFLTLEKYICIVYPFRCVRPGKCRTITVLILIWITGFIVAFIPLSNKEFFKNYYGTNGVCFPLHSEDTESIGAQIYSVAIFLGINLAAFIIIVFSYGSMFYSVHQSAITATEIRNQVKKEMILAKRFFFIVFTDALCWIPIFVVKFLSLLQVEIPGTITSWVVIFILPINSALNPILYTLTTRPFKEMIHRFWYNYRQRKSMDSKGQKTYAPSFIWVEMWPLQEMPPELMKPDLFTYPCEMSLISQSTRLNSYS

Lutropin-choriogonadotropic hormone receptor (Rattus norvegicus, UniProt P16235), sequence (P16235 whole entry): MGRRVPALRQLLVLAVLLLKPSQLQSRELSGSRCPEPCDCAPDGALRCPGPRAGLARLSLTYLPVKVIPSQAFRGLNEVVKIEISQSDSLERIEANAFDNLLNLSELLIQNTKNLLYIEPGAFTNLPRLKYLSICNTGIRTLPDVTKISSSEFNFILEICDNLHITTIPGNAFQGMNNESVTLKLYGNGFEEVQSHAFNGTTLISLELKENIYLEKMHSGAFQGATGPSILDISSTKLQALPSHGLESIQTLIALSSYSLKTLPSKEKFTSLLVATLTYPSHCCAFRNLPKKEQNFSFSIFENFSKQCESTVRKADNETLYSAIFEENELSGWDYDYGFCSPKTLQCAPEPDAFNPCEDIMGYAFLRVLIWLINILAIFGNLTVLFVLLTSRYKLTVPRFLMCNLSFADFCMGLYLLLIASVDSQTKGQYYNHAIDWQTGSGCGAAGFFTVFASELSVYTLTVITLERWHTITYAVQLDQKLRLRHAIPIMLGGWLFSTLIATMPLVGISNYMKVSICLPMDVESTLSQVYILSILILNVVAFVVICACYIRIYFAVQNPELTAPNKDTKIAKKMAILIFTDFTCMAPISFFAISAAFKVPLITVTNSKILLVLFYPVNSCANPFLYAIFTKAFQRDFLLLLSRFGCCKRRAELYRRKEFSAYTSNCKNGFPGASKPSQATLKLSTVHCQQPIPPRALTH
T1 sequence (P22888 whole entry): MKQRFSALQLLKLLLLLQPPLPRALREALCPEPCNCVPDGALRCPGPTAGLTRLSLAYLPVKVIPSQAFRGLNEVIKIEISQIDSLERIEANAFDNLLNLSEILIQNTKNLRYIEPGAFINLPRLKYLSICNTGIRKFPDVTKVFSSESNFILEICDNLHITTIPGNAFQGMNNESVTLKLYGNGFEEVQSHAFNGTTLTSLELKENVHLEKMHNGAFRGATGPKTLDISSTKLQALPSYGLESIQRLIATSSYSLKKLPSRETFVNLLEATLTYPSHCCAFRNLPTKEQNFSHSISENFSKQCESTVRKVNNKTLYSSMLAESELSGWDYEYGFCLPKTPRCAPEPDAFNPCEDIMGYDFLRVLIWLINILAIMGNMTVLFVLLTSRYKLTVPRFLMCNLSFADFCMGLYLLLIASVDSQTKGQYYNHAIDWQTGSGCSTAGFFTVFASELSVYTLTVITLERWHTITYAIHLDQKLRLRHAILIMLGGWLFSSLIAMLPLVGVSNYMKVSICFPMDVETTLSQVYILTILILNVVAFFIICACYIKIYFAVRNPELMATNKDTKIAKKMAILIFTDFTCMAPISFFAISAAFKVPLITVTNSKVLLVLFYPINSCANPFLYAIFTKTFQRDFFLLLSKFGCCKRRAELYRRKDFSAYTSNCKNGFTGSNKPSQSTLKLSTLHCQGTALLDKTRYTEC
Lutropin-choriogonadotropic hormone receptor (Mus musculus, UniProt P30730), sequence (P30730 whole entry): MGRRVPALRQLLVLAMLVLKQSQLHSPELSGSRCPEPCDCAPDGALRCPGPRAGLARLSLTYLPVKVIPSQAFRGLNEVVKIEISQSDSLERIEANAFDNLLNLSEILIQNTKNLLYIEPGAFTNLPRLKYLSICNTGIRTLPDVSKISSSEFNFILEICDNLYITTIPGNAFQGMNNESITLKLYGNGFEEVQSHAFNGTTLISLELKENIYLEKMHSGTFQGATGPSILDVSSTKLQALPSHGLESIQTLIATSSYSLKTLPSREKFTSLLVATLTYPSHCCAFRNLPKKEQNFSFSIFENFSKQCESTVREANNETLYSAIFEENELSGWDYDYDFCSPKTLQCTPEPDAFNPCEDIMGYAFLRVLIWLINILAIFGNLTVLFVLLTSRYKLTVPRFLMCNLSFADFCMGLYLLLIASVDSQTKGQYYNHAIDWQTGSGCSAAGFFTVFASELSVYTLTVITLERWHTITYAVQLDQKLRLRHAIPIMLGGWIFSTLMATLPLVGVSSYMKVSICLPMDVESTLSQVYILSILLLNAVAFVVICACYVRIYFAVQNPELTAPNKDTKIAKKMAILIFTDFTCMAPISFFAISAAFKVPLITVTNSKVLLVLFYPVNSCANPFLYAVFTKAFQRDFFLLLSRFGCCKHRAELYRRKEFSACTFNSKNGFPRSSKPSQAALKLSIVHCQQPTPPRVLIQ
Thyrotropin receptor, sequence (P16473 whole entry): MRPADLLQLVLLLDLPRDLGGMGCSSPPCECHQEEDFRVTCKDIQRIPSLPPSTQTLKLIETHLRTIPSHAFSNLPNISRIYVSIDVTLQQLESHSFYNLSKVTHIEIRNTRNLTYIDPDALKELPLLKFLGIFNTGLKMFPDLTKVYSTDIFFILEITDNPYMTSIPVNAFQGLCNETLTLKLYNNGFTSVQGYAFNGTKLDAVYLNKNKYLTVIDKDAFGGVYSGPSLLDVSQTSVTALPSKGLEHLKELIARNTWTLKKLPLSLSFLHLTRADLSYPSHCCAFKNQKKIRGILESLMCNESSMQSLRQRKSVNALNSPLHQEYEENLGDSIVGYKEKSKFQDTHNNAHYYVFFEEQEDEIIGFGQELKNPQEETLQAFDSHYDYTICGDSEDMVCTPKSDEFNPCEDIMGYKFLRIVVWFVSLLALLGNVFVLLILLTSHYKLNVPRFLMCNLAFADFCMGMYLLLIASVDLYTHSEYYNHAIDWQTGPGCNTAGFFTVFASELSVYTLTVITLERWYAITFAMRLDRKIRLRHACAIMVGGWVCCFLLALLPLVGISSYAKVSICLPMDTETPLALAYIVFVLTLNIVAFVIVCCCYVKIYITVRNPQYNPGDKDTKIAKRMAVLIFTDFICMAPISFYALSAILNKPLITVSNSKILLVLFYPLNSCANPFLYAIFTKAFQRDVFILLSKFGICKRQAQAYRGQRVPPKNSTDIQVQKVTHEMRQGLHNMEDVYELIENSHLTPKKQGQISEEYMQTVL

Structure (SMILES)	IC50 [1]	chromatographic logD [6]	CLhep predicted at 1 µM [7]	Fh at 1 µM [8]	also measured
COc1ccc([C@@H]2c3ccsc3CCN2C(=O)Nc2cc(Cl)cc(Cl)c2)cc1	6790 nM				IC50 [2]: > 16500 nM; IC50 [3]: > 30000 nM; IC50 [4]: 4890 nM; IC50 [5]: > 30000 nM
COc1ccc([C@H]2c3ccsc3CCN2C(=O)Nc2cc(Cl)cc(Cl)c2)cc1	403 nM				IC50 [2]: > 16500 nM; IC50 [3]: > 30000 nM; IC50 [4]: 412 nM; IC50 [5]: > 30000 nM
COc1ccc(C2c3ccsc3CCN2C(=O)Nc2ccc(F)c(C(N)=O)c2)cc1 (racemic)	1680 nM	2.8			
NC(=O)c1ccc(C2c3ccsc3CCN2C(=O)Nc2cc(Cl)cc(Cl)c2)cc1 (racemic)	> 16500 nM	3.7			
Cc1ccccc1C1c2ccsc2CCN1C(=O)Nc1cc(Cl)cc(Cl)c1 (racemic)	> 16500 nM				
O=C(Nc1cc(Cl)cc(Cl)c1)N1CCc2sccc2C1c1ccc(F)c(F)c1 (racemic)	1850 nM		13.3 mL/min/kg	40%	
COc1ccc(C2c3ccsc3CCN2C(=O)Nc2ccc(F)c(N3CCS(=O)(=O)CC3)c2)cc1 (racemic)	> 16500 nM	3.1			
Cc1ccc(C2c3ccsc3CCN2C(=O)Nc2cc(Cl)cc(Cl)c2)cc1 (racemic)	2610 nM	5.5	20 mL/min/kg	8%	
O=C(Nc1cc(Cl)cc(Cl)c1)N1CCc2sccc2C1c1ccc(C(F)(F)F)cc1 (racemic)	3650 nM		11.7 mL/min/kg	51%	
O=C(Nc1cc(Cl)cc(Cl)c1)N1CCc2sccc2C1c1cccnc1 (racemic)	7470 nM	4.2	20 mL/min/kg	11%	
COc1ccc(C2c3ccsc3CCN2C(=S)Nc2cc(OC)cc(OC)c2)cc1 (racemic)	3320 nM	3.7			
CC(C)c1ccc(C2c3ccsc3CCN2C(=O)Nc2cc(Cl)cc(Cl)c2)cc1 (racemic)	> 16500 nM				
O=C(Nc1cc(Cl)cc(Cl)c1)N1CCc2sccc2C1c1ccc(=O)[nH]c1 (racemic)	2310 nM	3.7			
COc1ccc(C2c3ccsc3CCN2C(=O)Cc2cc(C)cc(C)c2)cc1 (racemic)	> 16000 nM	4.8			
O=C(Nc1cc(Cl)cc(Cl)c1)N1CCc2sccc2C1c1ccccc1 (racemic)	1620 nM				
O=C(Nc1cc(Cl)cc(Cl)c1)N1CCc2sccc2C1c1ccccn1 (racemic)	> 16500 nM				
O=C(Nc1cc(Cl)cc(Cl)c1)N1CCc2sccc2C1c1ccccc1F (racemic)	3240 nM	4.8	18.3 mL/min/kg	17%	
O=C(Nc1cc(Cl)cc(Cl)c1)N1CCc2sccc2C1c1ccncc1 (racemic)	5180 nM	4.2			
COc1ccc(C2c3ccsc3CCN2C(=O)Nc2cc(C)cc(C)c2)cc1 (racemic)	580 nM	4.1			
O=C(Nc1cc(Cl)cc(Cl)c1)N1CCc2sccc2C1c1cccc(F)c1 (racemic)	3130 nM	5.1			
O=C(Nc1cc(Cl)cc(Cl)c1)N1CCc2sccc2C1c1ccc(Cl)cc1 (racemic)	486 nM		11.7 mL/min/kg	48%	
COc1ccc(C2c3ccsc3CCN2C(=O)Nc2cc(Cl)cc(Cl)c2)cc1 (racemic)	378 nM	5	21.7 mL/min/kg	3%	Activity [9]: Not Active; IC50 [2]: > 16500 nM; IC50 [3]: > 30000 nM; IC50 [4]: 212 nM; IC50 [5]: > 30000 nM; inhibition [10]: inactive

Molecules with a lower IC50 [1], results first:

IC50 [1]	chromatographic logD [6]	CLhep predicted at 1 µM [7]	Fh at 1 µM [8]	Structure (SMILES)	also measured
193 nM				COc1cc(NC(=O)N2CCc3sccc3[C@@H]2c2ccccc2)cc(OC)c1	
312 nM	3.2	3.33 mL/min/kg	83%	O=C(Nc1ccc(Oc2ccc(F)cc2)nc1)N1CCc2ncccc2[C@@H]1c1ccc(F)cc1	
102 nM	3.9	5 mL/min/kg	75%	O=C(Nc1ccc(Oc2ccc(F)cc2)cc1)N1CCc2ncccc2[C@@H]1c1ccc(F)cc1	
95 nM	4	16.7 mL/min/kg	26%	O=C(Nc1ccccc1)N1CCc2sccc2C1c1ccc(Cl)cc1 (racemic)	
174 nM	5.1			O=C(Nc1ccc(F)c(Cl)c1)N1CCc2sccc2C1c1ccc(Cl)cc1 (racemic)	
81 nM	5.2	13.3 mL/min/kg	42%	O=C(Nc1ccc(F)c(OC(F)(F)F)c1)N1CCc2sccc2C1c1ccc(Cl)cc1 (racemic)	
207 nM	3.6	21.7 mL/min/kg	3%	COc1ccc(C2c3ccsc3CCN2C(=O)Nc2cc(OC)cc(OC)c2)cc1 (racemic)	
127 nM	5.3	10 mL/min/kg	56%	O=C(Nc1ccc(Oc2ccc(F)cc2)cc1)N1CCc2sccc2C1c1ccc(Cl)cc1 (racemic)	
107 nM	3.9	18.3 mL/min/kg	18%	COc1ccc(C2c3ccsc3CCN2C(=O)Nc2ccc(Cl)cc2)cc1 (racemic)	
332 nM	5.4			O=C(Nc1cccc(Oc2ccccc2)c1)N1CCc2sccc2C1c1ccc(Cl)cc1 (racemic)	
275 nM	4.2	20 mL/min/kg	7%	COc1ccc(C2c3ccsc3CCN2C(=O)Nc2cccc(Cl)c2)cc1 (racemic)	
